Entries after “also recorded” stand apart in the source; their conditions may differ.
What was measured:
[1] = system: NIH 3T3 mouse fibroblasts; conditions: read-out: IC50 for TGF-b-dependent cellular growth in NIH 3T3 mouse fibroblasts; cited from earlier work
mink lung cells = conditions: read-out: IC50 for transcription activation in mink lung cells; cited from earlier work
CK1 (S. pombe) = conditions: cited from earlier work
IP3-K = conditions: cited from earlier work
[2] = system: IL-1 production in human monocytes; conditions: read-out: IC50 for inhibiting IL-1 production in human monocytes; cited from earlier work
PI3-Kα and δ = conditions: read-out: IC50 for PI3-Kα and δ; unit given as mM; cited from earlier work
[3] = system: androgen receptor (AR full length and AR variant 7) in LNCaP, LAPC-4, 22RV1 cells; assay: Androgen receptor expression in prostate cancer cell lines; type: cell-based
Protocol: Panels A-C, Prostate cancer cell lines LNCaP (A), LAPC-4 (B), and 22RV1 (C) were treated with inhibitor at indicated concentrations for indicated incubation times. FL, AR full length; V7, AR variant 7.
(§1) FIG. 10: TKI synergizes AR-ASO against AR expression and the AR signal pathway. […] MTS assay of LNCaP treated for 3 days with 1 uM TKI or 1 uM AR-ASO (AR-ASO-1) in the presence of the titrations of the paired drug.
Similar results have been obtained with Bcl-2.

LNCaP cells = assay: MTS cytotoxicity assay of TKI plus AR-ASO; type: cell-based; conditions: 3 days, 1 uM TKI or 1 uM AR-ASO with titration of the paired drug
Protocol: as §1

[4] = system: HCT-116 EGFP-miR21 tumor microspheroids; assay: Oligo penetration into tumor microspheroids, confocal microscopy; type: cell-based, human
Protocol: HCT-116 cells were transfected with a plasmid that expresses EGFP under the control of mir-21. When the cells express endogenous mir-21, the expression of EGFP is silenced. These cells were grown into tumor microspheroids, which were treated with an anti-mir21 mix mer oligonucleotide under gymnotic conditions (i.e., no carriers, no conjugations). When the anti-mir21 mix mer (product of Santaris Pharma, Horsholm, Denmark) enters the cells, it prevents the binding of the endogenous mir21 to its complementary sites on the 3′UTR of the EGFP gene. EGFP is then expressed and the cells glow green. Applicants discovered, by confocal microscopy, that the penetration of the anti-mir21 into the tumor microspheroid was only approximately 3 cells deep. Applicants verified this by treating the microspheroids with a Cy5-labeled anti-Bcl-2 phosphorothioate LNA gapmer. Here again, the penetration was only about 3 cell layers deep. Applicants then wanted to increase the oligo penetration and increase the amount of EGFP produced per cell. Applicants then began to screen a library of tyrosine kinase inhibitors (TKIs). These were added (100 nm-1 uM) to the media in addition to the oligo. Applicants examined 4 TKIs: Sorafenib was ineffective. […] This work has tremendous practical utility as it provides a way of screening for active oligos in a non-animal model, and provides a way to improve oligo penetration in tumors.
The HCT-116 EGFP-miR21 stable, clonal cell line was used to create the microspheroids in 96-well hanging-drop plates (Perfecta 3D, Biometrix Inc., Ann Arbor, Mich.). Following trypsinization, the cells were lifted and re-suspended at a density of 3×10^5 cells in 300 μL DMEM (Irvine Scientific, Santa Ana, Calif., USA) supplemented with 10% fetal calf serum (Irvine Scientific), 1 mM L-glutamine, 5% non-essential amino acids. To improve the 3D structure of the spheroids, 2.5% Matrigel™ can be added to the cell seeding solution. […]
All microspheroids were incubated for additional 5 days and analyzed with a Zeiss confocal microscope. […]

HCT116-GFPmiR21 cells [5] = assay: Drug screen: EGFP reactivation by anti-miR21 oligo plus compound (ASO uptake and function); type: cell-based, human; conditions: for TKI effect on oligo penetration and EGFP produced per cell: TKI 100 nm-1 uM added to the media in addition to the oligo; for ASO uptake (eGFP activation), FIG. 3: anti-mir21 + drug
HCT116-GFPmiR21 cells [6] = assay: ASO intracellular release: anti-miR21 pretreatment, wash, then compound; type: cell-based, human; conditions: then drug
Protocol: A robotic screening of a library of tyrosine kinase inhibitors (TKIs) was performed. […] These compounds are under investigation with the aim of determining the mechanism and the lowest concentration required for maximal enhancement of ASO function. For the 14 compounds identified as active in the initial screen, EGFP reactivation was monitored every day for up to 6 days. To determine if any compound affected ASO intracellular release, cells were first treated with 1 μM anti-miR21 PS-mixmer. The next day the media was removed and cells were washed twice with PBS. After adding fresh media the cell were treated with 1 μM of each active compound. Since ASO uptake had already occurred, any enhancement of EGFP expression in active compound-treated cells would be an indication of improved ASO intracellular release.

Question: Which IC50 [1] does the source give for `c1ccc(-c2n[nH]cc2-c2ccnc3ccccc23)nc1` here?
Answer: 89 nM

Question: What about the IC50 (mink lung cells) of the same molecule?
Answer: 47 nM

Question: Which IC50 (IP3-K) does the source give for `O=[N+]([O-])c1ccc(CNc2nc(NCc3cccc(C(F)(F)F)c3)nc3[nH]cnc23)cc1` here?
Answer: 10200 nM

Question: Which IC50 [2] does the source give for `CS(=O)(=O)c1ccc(-c2nc(-c3ccc(F)cc3)c(-c3ccncc3)[nH]2)cc1` here?
Answer: 200 nM

Question: With `O=C1NC(=O)/C(=C/c2ccc3c(c2)OC(F)(F)O3)S1` as the molecule, how does the IC50 (PI3-Kα and δ) read?
Answer: > 0.02 mM

Question: Which results are given for `O=C1Nc2cc(Br)ccc2/C1=C1/Nc2ccccc2/C1=N/O` [Compound 6-BIO]?
Answer: Androgen receptor downregulation ([3]; LNCaP, LAPC-4, 22RV1, AR full length and AR-V7): can downregulate both forms; also recorded: downregulates; Synergy with AR antisense oligo against AR expression and AR signal pathway ([3]; combined with AR-ASO, LNCaP and LAPC-4, 2 days): synergistic; also recorded: synergizes; Cytotoxicity of the combination of TKI and AR-ASO (MTS assay) (LNCaP cells): did not show increased cytoxicity

Question: For `COc1cccc2c1C(=O)c1c(O)c3c(c(O)c1C2=O)C[C@@](O)(C(=O)CO)C[C@@H]3O[C@H]1C[C@H](N)[C@H](O)[C@H](C)O1` [Doxorubicin], which “Penetration into tumor spheroids (confocal Z-stacks)” value ([4]; FIG. 4-6) is on record?
Answer: more uniform penetration

Question: For `CNC(=O)c1cc(Oc2ccc(NC(=O)Nc3ccc(Cl)c(C(F)(F)F)c3)cc2)ccn1` [Sorafenib], which “TKI effect on oligo penetration and EGFP produced per cell” value (HCT116-GFPmiR21 cells [5]) is on record?
Answer: ineffective

Question: What about the “ASO uptake (eGFP activation), FIG. 3” value (HCT116-GFPmiR21 cells [5]) of the same molecule?
Answer: Decreased uptake

Question: Which “Penetration of the anti-mir21 oligo in tumor microspheroids” value ([4]; TKI 100 nm-1 uM with oligo) does the source give for `Cc1ccc(NC(=O)c2ccc(CN3CCN(C)CC3)cc2)cc1Nc1nccc(-c2cccnc2)n1` [imatinib, 4-[(4-methylpiperazin-1-yl)methyl]-N-(4-methyl-3-{[4-(pyridin-3-yl)pyrimidin-2-yl]amino}phenyl)benzamide] here?
Answer: increased penetration

Question: What about the “Penetration of the Cy5-labeled anti-Bcl-2 oligo in tumor microspheroids” value ([4]; TKI with oligo) of the same molecule?
Answer: increased penetration was also seen

Question: What about the “ASO release (eGFP activation), FIG. 3” value (HCT116-GFPmiR21 cells [6]) of the same molecule?
Answer: increased release

Question: What about the “ASO uptake (eGFP activation), FIG. 3” value (HCT116-GFPmiR21 cells [5]) of the same molecule?
Answer: Increased uptake

Question: And the “EGFP expression in tissue culture” value (HCT116-GFPmiR21 cells [5]; with anti-mir21 oligo, TKI 100 nm-1 uM)?
Answer: dramatically increased

Question: Which “TKI effect on oligo penetration and EGFP produced per cell” value (HCT116-GFPmiR21 cells [5]) does the source give for `Cc1cn(-c2cc(NC(=O)c3ccc(C)c(Nc4nccc(-c5cccnc5)n4)c3)cc(C(F)(F)F)c2)cn1` [nilotinib, 4-methyl-N-[3-(4-methyl-1H-imidazol-1-yl)-5-(trifluoromethyl)phenyl]-3-[(4-pyridin-3-ylpyrimidin-2-yl)amino]benzamide] here?
Answer: shown to have activity

From patent publication US11759530B2, “TKI permeability enhancers” (City of Hope, priority 2014, dated 2023)
